Reference: ChEMBL document CHEMBL4507257, “Data for DCP probe ABT-100” (2021)

Experiments:
[1] = biological target: Tyrosine-protein kinase Lck (Homo sapiens) (UniProt P06239); conditions: Compound concentration 1000.0 nM
[2] = test system: Phosphatidylinositol 4,5-bisphosphate 3-kinase catalytic subunit alpha isoform (Homo sapiens), P42336 [E545A]; conditions: Compound concentration 1000.0 nM
[3] = biological target: Beta-3 adrenergic receptor (Homo sapiens) (UniProt P13945); conditions: Compound concentration 10.0 uM
[4] = biological target: Ribosomal protein S6 kinase alpha-5 (Homo sapiens) (UniProt O75582); conditions: Compound concentration 1000.0 nM
[5] = biological target: Ephrin type-A receptor 3 (Homo sapiens) (UniProt P29320); conditions: Compound concentration 1000.0 nM
[6] = test system: ALK tyrosine kinase receptor (Homo sapiens), Q9UM73 [C1156Y]; conditions: Compound concentration 1000.0 nM
[7] = biological target: SNF-related serine/threonine-protein kinase (Homo sapiens) (UniProt Q9NRH2); conditions: Compound concentration 1000.0 nM
Chain of SNF-related serine/threonine-protein kinase (Homo sapiens) (Q9NRH2 whole entry): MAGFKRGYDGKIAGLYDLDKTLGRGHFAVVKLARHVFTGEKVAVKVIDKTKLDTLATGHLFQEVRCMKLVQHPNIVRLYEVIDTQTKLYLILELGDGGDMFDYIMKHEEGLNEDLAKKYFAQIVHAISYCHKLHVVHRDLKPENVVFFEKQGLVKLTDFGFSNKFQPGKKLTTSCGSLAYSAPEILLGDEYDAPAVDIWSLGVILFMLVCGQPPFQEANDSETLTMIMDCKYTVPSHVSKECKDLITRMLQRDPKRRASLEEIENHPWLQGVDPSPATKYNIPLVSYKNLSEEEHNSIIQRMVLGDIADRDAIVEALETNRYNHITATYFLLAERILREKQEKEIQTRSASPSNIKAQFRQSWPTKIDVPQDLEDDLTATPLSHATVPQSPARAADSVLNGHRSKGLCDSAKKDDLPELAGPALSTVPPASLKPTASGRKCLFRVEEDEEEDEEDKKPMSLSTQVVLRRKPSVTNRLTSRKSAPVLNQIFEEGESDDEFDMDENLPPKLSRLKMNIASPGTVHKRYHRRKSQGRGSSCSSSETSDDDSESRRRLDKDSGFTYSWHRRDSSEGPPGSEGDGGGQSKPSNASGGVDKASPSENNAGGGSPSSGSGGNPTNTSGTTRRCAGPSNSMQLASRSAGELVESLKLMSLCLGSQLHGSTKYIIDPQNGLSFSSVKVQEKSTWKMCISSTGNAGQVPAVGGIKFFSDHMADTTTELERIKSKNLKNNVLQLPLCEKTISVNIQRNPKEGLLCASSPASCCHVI

[8] = biological target: Proto-oncogene tyrosine-protein kinase Src (Homo sapiens) (UniProt P12931); conditions: Compound concentration 1000.0 nM
[9] = biological target: STE20/SPS1-related proline-alanine-rich protein kinase (Homo sapiens) (UniProt Q9UEW8); conditions: Compound concentration 1000.0 nM
[10] = biological target: Ephrin type-B receptor 1 (Homo sapiens) (UniProt P54762); conditions: Compound concentration 1000.0 nM
[11] = biological target: Serine/threonine-protein kinase tousled-like 2 (Homo sapiens) (UniProt Q86UE8); conditions: Compound concentration 1000.0 nM
[12] = biological target: Muscarinic acetylcholine receptor M3 (Homo sapiens) (UniProt P20309); conditions: Compound concentration 10.0 uM
[13] = biological target: Tyrosine-protein kinase Yes (Homo sapiens) (UniProt P07947); conditions: Compound concentration 1000.0 nM
[14] = test system: Tyrosine-protein kinase ABL1 (Homo sapiens), P00519 [F317L]; conditions: Compound concentration 1000.0 nM
[15] = test system: Hepatocyte growth factor receptor (Homo sapiens), P08581 [Y1235D]; conditions: Compound concentration 1000.0 nM
[16] = test system: Epidermal growth factor receptor (Homo sapiens), P00533 [L858R]; conditions: Compound concentration 1000.0 nM
[17] = biological target: Histamine H1 receptor (Homo sapiens, UniProt P35367); conditions: Compound concentration 10.0 uM
[18] = biological target: Serine/threonine-protein kinase STK11 (Homo sapiens) (UniProt Q15831); conditions: Compound concentration 1000.0 nM
[19] = biological target: Uncharacterized serine/threonine-protein kinase SBK3 (Homo sapiens) (UniProt P0C264); conditions: Compound concentration 1000.0 nM
Chain of Uncharacterized serine/threonine-protein kinase SBK3 (Homo sapiens) (P0C264 whole entry): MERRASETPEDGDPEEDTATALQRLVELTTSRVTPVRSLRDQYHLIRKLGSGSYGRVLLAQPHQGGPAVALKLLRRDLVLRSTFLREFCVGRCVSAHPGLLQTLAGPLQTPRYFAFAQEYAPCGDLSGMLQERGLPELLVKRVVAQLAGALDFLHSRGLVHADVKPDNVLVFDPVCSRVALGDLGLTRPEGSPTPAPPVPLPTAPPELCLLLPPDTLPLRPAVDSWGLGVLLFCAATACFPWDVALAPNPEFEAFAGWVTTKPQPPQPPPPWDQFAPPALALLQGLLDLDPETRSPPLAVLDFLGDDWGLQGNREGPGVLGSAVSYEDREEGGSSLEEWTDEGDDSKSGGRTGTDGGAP

[20] = biological target: Serine/threonine-protein kinase Sgk1 (Homo sapiens) (UniProt O00141); conditions: Compound concentration 1000.0 nM
[21] = biological target: Serine/threonine-protein kinase PLK4 (Homo sapiens) (UniProt O00444); conditions: Compound concentration 1000.0 nM
[22] = biological target: Casein kinase I isoform delta (Homo sapiens) (UniProt P48730); conditions: Compound concentration 1000.0 nM
Chain of Casein kinase I isoform delta (Homo sapiens) (P48730 whole entry, looked up, canonical isoform): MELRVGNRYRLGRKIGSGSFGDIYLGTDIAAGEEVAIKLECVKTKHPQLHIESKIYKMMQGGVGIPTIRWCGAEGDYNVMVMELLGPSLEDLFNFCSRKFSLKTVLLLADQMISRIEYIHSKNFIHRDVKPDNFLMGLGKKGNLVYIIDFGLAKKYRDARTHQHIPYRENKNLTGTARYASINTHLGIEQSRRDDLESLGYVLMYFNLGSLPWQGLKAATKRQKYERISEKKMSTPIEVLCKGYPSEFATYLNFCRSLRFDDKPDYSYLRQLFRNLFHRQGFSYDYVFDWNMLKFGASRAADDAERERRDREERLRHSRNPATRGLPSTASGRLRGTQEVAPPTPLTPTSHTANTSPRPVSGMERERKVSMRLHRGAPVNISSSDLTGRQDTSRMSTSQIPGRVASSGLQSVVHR

[23] = biological target: D(3) dopamine receptor (Homo sapiens) (UniProt P35462); conditions: Compound concentration 10.0 uM
[24] = biological target: Serine/threonine-protein kinase B-raf (Homo sapiens) (UniProt P15056); conditions: Compound concentration 1000.0 nM
Chain of Serine/threonine-protein kinase B-raf (Homo sapiens) (P15056 whole entry): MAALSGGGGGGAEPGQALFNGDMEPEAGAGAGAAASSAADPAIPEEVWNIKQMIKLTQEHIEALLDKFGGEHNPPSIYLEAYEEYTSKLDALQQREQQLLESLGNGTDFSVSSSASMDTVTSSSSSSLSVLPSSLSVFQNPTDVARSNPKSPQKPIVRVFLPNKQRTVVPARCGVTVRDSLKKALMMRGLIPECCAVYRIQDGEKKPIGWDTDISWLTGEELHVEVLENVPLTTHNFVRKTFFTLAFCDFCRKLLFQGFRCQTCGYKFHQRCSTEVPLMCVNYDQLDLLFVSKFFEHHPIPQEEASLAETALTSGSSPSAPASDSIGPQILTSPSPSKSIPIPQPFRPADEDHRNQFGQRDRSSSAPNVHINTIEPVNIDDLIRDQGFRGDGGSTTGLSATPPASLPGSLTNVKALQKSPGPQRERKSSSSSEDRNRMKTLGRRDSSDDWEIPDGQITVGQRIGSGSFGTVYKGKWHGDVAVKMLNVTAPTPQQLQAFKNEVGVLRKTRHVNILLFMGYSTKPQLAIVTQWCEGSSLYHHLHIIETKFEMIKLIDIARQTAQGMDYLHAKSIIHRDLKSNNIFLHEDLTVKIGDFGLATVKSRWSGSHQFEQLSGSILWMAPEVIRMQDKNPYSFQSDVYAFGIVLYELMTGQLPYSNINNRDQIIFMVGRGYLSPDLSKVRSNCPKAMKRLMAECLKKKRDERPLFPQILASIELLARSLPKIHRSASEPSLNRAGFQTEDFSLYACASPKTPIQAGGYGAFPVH

[25] = biological target: Mitogen-activated protein kinase 1 (Homo sapiens) (UniProt P28482); conditions: Compound concentration 1000.0 nM
[26] = biological target: Serine/threonine-protein kinase TBK1 (Homo sapiens) (UniProt Q9UHD2); conditions: Compound concentration 1000.0 nM
[27] = biological target: Inhibitor of nuclear factor kappa-B kinase subunit epsilon (Homo sapiens) (UniProt Q14164); conditions: Compound concentration 1000.0 nM
[28] = biological target: Serine/threonine-protein kinase ICK (Homo sapiens) (UniProt Q9UPZ9); conditions: Compound concentration 1000.0 nM
Chain of Serine/threonine-protein kinase ICK (Homo sapiens) (Q9UPZ9 whole entry, the tested form may be a part): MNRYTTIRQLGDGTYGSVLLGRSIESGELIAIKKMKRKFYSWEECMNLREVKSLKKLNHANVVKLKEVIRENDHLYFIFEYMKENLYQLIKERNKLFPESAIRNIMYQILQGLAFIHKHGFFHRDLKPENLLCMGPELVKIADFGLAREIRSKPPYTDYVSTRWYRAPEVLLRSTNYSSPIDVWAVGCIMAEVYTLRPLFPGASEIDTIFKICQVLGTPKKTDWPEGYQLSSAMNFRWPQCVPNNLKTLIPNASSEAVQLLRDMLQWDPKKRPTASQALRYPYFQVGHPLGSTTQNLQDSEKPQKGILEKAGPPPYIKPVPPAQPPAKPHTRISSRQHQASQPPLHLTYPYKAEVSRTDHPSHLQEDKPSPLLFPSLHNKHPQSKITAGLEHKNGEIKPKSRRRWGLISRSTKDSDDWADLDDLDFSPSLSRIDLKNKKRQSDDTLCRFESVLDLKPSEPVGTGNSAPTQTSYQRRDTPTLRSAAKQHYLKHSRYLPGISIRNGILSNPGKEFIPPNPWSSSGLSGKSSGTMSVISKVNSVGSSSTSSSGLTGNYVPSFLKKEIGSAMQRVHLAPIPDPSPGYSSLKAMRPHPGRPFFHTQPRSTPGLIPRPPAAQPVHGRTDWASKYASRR

[29] = biological target: LIM domain kinase 2 (Homo sapiens) (UniProt P53671); conditions: Compound concentration 1000.0 nM
[30] = biological target: Sigma non-opioid intracellular receptor 1 (Homo sapiens, UniProt Q99720); conditions: Compound concentration 10.0 uM
Chain of Sigma non-opioid intracellular receptor 1 (Q99720 whole entry): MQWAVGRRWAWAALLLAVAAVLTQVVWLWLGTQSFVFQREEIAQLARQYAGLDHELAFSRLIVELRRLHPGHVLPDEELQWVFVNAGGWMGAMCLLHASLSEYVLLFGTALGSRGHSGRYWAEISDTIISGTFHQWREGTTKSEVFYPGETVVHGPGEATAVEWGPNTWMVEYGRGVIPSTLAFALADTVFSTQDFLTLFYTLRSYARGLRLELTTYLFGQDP

[31] = biological target: RAF proto-oncogene serine/threonine-protein kinase (Homo sapiens) (UniProt P04049); conditions: Compound concentration 1000.0 nM
[32] = biological target: Vascular endothelial growth factor receptor 1 (Homo sapiens) (UniProt P17948); conditions: Compound concentration 1000.0 nM
[33] = biological target: cAMP-dependent protein kinase catalytic subunit PRKX (Homo sapiens) (UniProt P51817); conditions: Compound concentration 1000.0 nM
Chain of cAMP-dependent protein kinase catalytic subunit PRKX (Homo sapiens) (P51817 whole entry): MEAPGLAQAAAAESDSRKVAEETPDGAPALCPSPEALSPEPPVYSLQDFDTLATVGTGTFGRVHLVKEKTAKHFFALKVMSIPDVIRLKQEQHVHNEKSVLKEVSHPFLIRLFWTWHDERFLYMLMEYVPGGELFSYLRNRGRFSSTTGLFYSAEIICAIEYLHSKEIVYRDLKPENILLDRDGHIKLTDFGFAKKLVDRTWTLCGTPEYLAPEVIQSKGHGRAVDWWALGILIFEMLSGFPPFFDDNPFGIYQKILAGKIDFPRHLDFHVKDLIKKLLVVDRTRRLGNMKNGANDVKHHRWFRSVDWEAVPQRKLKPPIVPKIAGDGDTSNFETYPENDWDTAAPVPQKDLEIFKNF

[34] = biological target: Serine/threonine-protein kinase 25 (Homo sapiens) (UniProt O00506); conditions: Compound concentration 1000.0 nM
[35] = biological target: Beta-2 adrenergic receptor (Homo sapiens) (UniProt P07550); conditions: Compound concentration 10.0 uM
[36] = biological target: Ephrin type-A receptor 6 (Homo sapiens) (UniProt Q9UF33); conditions: Compound concentration 1000.0 nM
[37] = biological target: Ephrin type-A receptor 1 (Homo sapiens) (UniProt P21709); conditions: Compound concentration 1000.0 nM
Chain of Ephrin type-A receptor 1 (Homo sapiens) (P21709 whole entry): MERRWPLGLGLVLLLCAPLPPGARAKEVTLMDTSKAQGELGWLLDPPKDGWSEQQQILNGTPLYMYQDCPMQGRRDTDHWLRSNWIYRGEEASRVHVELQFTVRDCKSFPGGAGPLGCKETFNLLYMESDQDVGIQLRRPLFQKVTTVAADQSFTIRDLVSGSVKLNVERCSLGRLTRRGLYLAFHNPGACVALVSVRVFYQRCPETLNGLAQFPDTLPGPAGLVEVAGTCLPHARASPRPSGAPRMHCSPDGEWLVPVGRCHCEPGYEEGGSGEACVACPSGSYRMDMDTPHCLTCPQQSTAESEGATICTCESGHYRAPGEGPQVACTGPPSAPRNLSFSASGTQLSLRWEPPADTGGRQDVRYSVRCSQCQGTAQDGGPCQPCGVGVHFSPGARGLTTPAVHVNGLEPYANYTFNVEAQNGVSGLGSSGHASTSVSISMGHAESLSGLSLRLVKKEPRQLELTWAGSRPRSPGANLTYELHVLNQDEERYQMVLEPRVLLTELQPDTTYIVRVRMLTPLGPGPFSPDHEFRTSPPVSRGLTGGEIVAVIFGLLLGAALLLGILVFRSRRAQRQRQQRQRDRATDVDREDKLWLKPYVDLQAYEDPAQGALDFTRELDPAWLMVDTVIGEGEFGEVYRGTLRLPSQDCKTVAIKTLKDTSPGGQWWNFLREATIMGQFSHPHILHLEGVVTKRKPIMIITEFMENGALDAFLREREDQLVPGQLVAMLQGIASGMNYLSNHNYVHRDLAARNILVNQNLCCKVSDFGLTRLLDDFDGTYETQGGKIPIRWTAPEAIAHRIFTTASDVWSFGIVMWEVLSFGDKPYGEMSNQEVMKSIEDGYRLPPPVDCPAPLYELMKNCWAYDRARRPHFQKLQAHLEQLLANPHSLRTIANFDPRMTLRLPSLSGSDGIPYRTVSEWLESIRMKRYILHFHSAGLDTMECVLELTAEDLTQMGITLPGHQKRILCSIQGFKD

[38] = biological target: Serine/threonine-protein kinase 33 (Homo sapiens) (UniProt Q9BYT3); conditions: Compound concentration 1000.0 nM
Chain of Serine/threonine-protein kinase 33 (Homo sapiens) (Q9BYT3 whole entry, looked up): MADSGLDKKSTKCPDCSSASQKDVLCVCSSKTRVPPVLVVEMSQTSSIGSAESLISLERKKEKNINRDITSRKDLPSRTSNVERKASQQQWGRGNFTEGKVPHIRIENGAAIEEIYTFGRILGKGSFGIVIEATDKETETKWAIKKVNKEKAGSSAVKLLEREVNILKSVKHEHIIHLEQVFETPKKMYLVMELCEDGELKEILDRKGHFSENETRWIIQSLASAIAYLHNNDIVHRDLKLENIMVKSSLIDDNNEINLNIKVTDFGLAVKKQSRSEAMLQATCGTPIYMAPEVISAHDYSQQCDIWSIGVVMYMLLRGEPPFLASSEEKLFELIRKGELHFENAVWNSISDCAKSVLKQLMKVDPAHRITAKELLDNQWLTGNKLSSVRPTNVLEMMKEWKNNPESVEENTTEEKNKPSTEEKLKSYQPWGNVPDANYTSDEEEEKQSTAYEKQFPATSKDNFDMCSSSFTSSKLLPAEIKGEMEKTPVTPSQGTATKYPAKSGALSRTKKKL

[39] = biological target: Dual specificity protein kinase CLK2 (Homo sapiens) (UniProt P49760); conditions: Compound concentration 1000.0 nM
[40] = biological target: Bone morphogenetic protein receptor type-1B (Homo sapiens) (UniProt O00238); conditions: Compound concentration 1000.0 nM
[41] = biological target: Ribosomal protein S6 kinase alpha-3 (Homo sapiens) (UniProt P51812); conditions: Compound concentration 1000.0 nM
[42] = biological target: Receptor-interacting serine/threonine-protein kinase 1 (Homo sapiens) (UniProt Q13546); conditions: Compound concentration 1000.0 nM
[43] = biological target: Citron Rho-interacting kinase (Homo sapiens) (UniProt O14578); conditions: Compound concentration 1000.0 nM
[44] = biological target: Tyrosine-protein kinase ABL1 (Homo sapiens) (UniProt P00519); conditions: Compound concentration 1000.0 nM
[45] = biological target: 5'-AMP-activated protein kinase catalytic subunit alpha-2 (Homo sapiens) (UniProt P54646); conditions: Compound concentration 1000.0 nM

Structure (SMILES): Cn1cncc1[C@@](O)(COc1ccc(C#N)cc1-c1ccc(OC(F)(F)F)cc1)c1ccc(C#N)cc1 [A-108]
- residual activity [1]: 100%
- residual activity [2]: 86%
- inhibition [3]: -5.85%
- residual activity [4]: 81%
- residual activity [5]: 100%
- residual activity [6]: 98%
- residual activity [7]: 87%
- residual activity [8]: 100%
- residual activity [9]: 100%
- residual activity [10]: 100%
- residual activity [11]: 97%
- inhibition [12]: 2.79%
- residual activity [13]: 100%
- residual activity [14]: 100%
- residual activity [15]: 100%
- residual activity [16]: 100%
- inhibition [17]: 43.5%
- residual activity [18]: 100%
- residual activity [19]: 92%
- residual activity [20]: 100%
- residual activity [21]: 84%
- residual activity [22]: 94%
- inhibition [23]: 18.1%
- residual activity [24]: 100%
- residual activity [25]: 91%
- residual activity [26]: 100%
- residual activity [27]: 100%
- residual activity [28]: 75%
- residual activity [29]: 82%
- inhibition [30]: 92.3%
- residual activity [31]: 85%
- residual activity [32]: 83%
- residual activity [33]: 94%
- residual activity [34]: 95%
- inhibition [35]: 23.1%
- residual activity [36]: 3%
- residual activity [37]: 93%
- residual activity [38]: 69%
- residual activity [39]: 90%
- residual activity [40]: 96%
- residual activity [41]: 98%
- residual activity [42]: 90%
- residual activity [43]: 97%
- residual activity [44]: 96%
- residual activity [45]: 87%

Structure (SMILES): Cn1cncc1[C@](O)(COc1ccc(C#N)cc1-c1ccc(OC(F)(F)F)cc1)c1ccc(C#N)cc1 [ABT-100]
- residual activity [1]: 82%
- residual activity [2]: 100%
- inhibition [3]: 32.9%
- residual activity [4]: 76%
- residual activity [5]: 90%
- residual activity [6]: 92%
- residual activity [7]: 100%
- residual activity [8]: 81%
- residual activity [9]: 50%
- residual activity [10]: 98%
- residual activity [11]: 100%
- inhibition [12]: 23.3%
- residual activity [13]: 94%
- residual activity [14]: 100%
- residual activity [15]: 78%
- residual activity [16]: 86%
- inhibition [17]: 88.8%
- residual activity [18]: 71%
- residual activity [19]: 100%
- residual activity [20]: 76%
- residual activity [21]: 94%
- residual activity [22]: 100%
- inhibition [23]: -9.46%
- residual activity [24]: 84%
- residual activity [25]: 90%
- residual activity [26]: 100%
- residual activity [27]: 100%
- residual activity [28]: 100%
- residual activity [29]: 72%
- inhibition [30]: 42.5%
- residual activity [31]: 100%
- residual activity [32]: 98%
- residual activity [33]: 87%
- residual activity [34]: 91%
- inhibition [35]: 0.0774%
- residual activity [36]: 100%
- residual activity [37]: 38%
- residual activity [38]: 74%
- residual activity [39]: 87%
- residual activity [40]: 77%
- residual activity [41]: 100%
- residual activity [42]: 79%
- residual activity [43]: 77%
- residual activity [44]: 100%
- residual activity [45]: 100%
